# US11357779B2 (G1 Therapeutics, Inc., priority 2018, dated 2022)
# Like-named read-outs stand apart in the source and are kept apart here.
# Test: Plasma concentration versus time of Compound I and metabolite Compound III in patients dosed QD or BID with Form B of Compound II plus fulvestrant
# Format: in vivo, human
# Conditions: human, plasma, oral; for concentration at 22 day: Day 22; for concentration at 24 h: Day 1, […]
# Source text: Patients were enrolled into 1 of 2 parallel, independently operating, dose-escalation dosing cohorts with Form B of Compound II administered continuously either once daily (QD) or twice daily (BID) with food with fixed-dose fulvestrant (intramuscularly every 14 days for the first three injections and then every 28 days). Pre- or perimenopausal patients also received goserelin for the duration of study treatment. A […] agonist was started at least 28 days before the first dose of Form B, and those patients who were taking another LHRH agonist were switched to goserelin on Day 1. Patients were split into […] cohorts providing once a day (QD) dosing of 200 mg, 300 mg, 400 mg, 500 mg, or 650 mg of Form B, or twice a day (BID) dosing of 100 mg, 150 mg, or 200 mg of Form B. The second dose in BID cohorts was not administered in the evening until at least 12 hours after the initial morning dose of Form B. The dosing cohorts for Form B of Compound II are provided in Table 1.
# Blood samples were collected at the following time points relative to the morning dose of Form B at Day 1 and at Day 29: pre-dose (0 hour) and 1, 2, 3, 4, 6, 8, 10, 12 (prior to the evening dose in the BID cohorts), and 24 (prior to the next day's morning dose) hours after dosing. A 5-minute time window was allowed for samples collected between the predose and 3 hours after Form B dosing. A 15-minute window was allowed for samples collected between 4 to 12 hours after Form B dosing. A 1-hour window was allowed for the sample collected 24 hours after Form B dosing. Blood samples for Compound I PK trough levels were collected pre-dose at Day 8, Day 15, and Day 22 prior to the morning administration of Compound I. Plasma concentrations of Compound I and its metabolite, Compound III, were measured using validated methods.
# Analysis of plasma concentration versus time data for calculation of standard pharmacokinetic (PK) parameters following oral administration was conducted using Phoenix WinNonlin version 6.3 using actual blood sampling times.
smiles,measurement,setting,value
"CC(C)N1CCN(c2ccc(Nc3ncc4cc5n(c4n3)C3(CCCCC3)CNC5=O)nc2)CC1 [Compound I, 2′-((5-(4-isopropylpiperazin-1-yl)pyridin-2-yl)amino)-7′,8′-dihydro-6′H-spiro[cyclohexane-1,9′-pyrazino[1′,2′:1,5]pyrrolo[2,3-d]pyrimidin]-6′-one]",concentration at 15 day,"150 mg, Cohort 7, 150 mg BID of Form B, Day 15, read-out: Trough Compound I Concentration, Min",15.5 ng/mL
same,concentration at 22 day,"150 mg, Cohort 7, 150 mg BID of Form B, read-out: Trough Compound I Concentration, Max",30.5 ng/mL
same,concentration at 22 day,"150 mg, Cohort 7, 150 mg BID of Form B, read-out: Trough Compound I Concentration, Median",15.9 ng/mL
same,concentration at 22 day,"150 mg, Cohort 7, 150 mg BID of Form B, read-out: Trough Compound I Concentration, Min",15.5 ng/mL
same,concentration at 0 h,"150 mg, Cohort 7, 150 mg BID of Form B, Day 29, 0.0 h, read-out: Compound I Concentration, Max",51.1 ng/mL
same,concentration at 0 h,"150 mg, Cohort 7, 150 mg BID of Form B, Day 29, 0.0 h, read-out: Compound I Concentration, Median",18.5 ng/mL
same,concentration at 1 h,"150 mg, Cohort 7, 150 mg BID of Form B, Day 29, 1.0 h, read-out: Compound I Concentration, Median",28.7 ng/mL
same,concentration at 2 h,"150 mg, Cohort 7, 150 mg BID of Form B, Day 29, 2.0 h, read-out: Compound I Concentration, Median",34.3 ng/mL
same,concentration at 3 h,"150 mg, Cohort 7, 150 mg BID of Form B, Day 29, 3.0 h, read-out: Compound I Concentration, Median",35.6 ng/mL
same,concentration at 4 h,"150 mg, Cohort 7, 150 mg BID of Form B, Day 29, 4.0 h, read-out: Compound I Concentration, Median",36.9 ng/mL
same,concentration at 6 h,"150 mg, Cohort 7, 150 mg BID of Form B, Day 29, 6.0 h, read-out: Compound I Concentration, Median",26.5 ng/mL
same,concentration at 8 h,"150 mg, Cohort 7, 150 mg BID of Form B, Day 29, 8.0 h, read-out: Compound I Concentration, Median",26.9 ng/mL
same,concentration at 10 h,"150 mg, Cohort 7, 150 mg BID of Form B, Day 29, 10.0 h, read-out: Compound I Concentration, Median",23.8 ng/mL
same,concentration at 12 h,"150 mg, Cohort 7, 150 mg BID of Form B, Day 29, 12.0 h, read-out: Compound I Concentration, Median",17.3 ng/mL
same,concentration at 0 h,"200 mg, 200 mg BID of Form B, Day 1, 0.0 h, Mean, read-out: Compound I Concentration",0 ng/mL
same,concentration at 0 h,"200 mg, 200 mg BID of Form B, Day 1, 0.0 h, Median, read-out: Compound I Concentration",0 ng/mL
same,concentration at 1 h,"200 mg, 200 mg BID of Form B, Day 1, 1.0 h, Mean, read-out: Compound I Concentration",5.79 ng/mL
same,concentration at 1 h,"200 mg, 200 mg BID of Form B, Day 1, 1.0 h, Median, read-out: Compound I Concentration",6.13 ng/mL
same,concentration at 2 h,"200 mg, 200 mg BID of Form B, Day 1, 2.0 h, Mean, read-out: Compound I Concentration",9.42 ng/mL
same,concentration at 2 h,"200 mg, 200 mg BID of Form B, Day 1, 2.0 h, Median, read-out: Compound I Concentration",11.8 ng/mL
same,concentration at 3 h,"200 mg, 200 mg BID of Form B, Day 1, 3.0 h, Mean, read-out: Compound I Concentration",12.8 ng/mL
same,concentration at 3 h,"200 mg, 200 mg BID of Form B, Day 1, 3.0 h, Median, read-out: Compound I Concentration",14.8 ng/mL
same,concentration at 4 h,"200 mg, 200 mg BID of Form B, Day 1, 4.0 h, Mean, read-out: Compound I Concentration",15.5 ng/mL
same,concentration at 4 h,"200 mg, 200 mg BID of Form B, Day 1, 4.0 h, Median, read-out: Compound I Concentration",14.9 ng/mL
same,concentration at 6 h,"200 mg, 200 mg BID of Form B, Day 1, 6.0 h, Mean, read-out: Compound I Concentration",15.5 ng/mL
same,concentration at 6 h,"200 mg, 200 mg BID of Form B, Day 1, 6.0 h, Median, read-out: Compound I Concentration",17.1 ng/mL
same,concentration at 8 h,"200 mg, 200 mg BID of Form B, Day 1, 8.0 h, Mean, read-out: Compound I Concentration",8.94 ng/mL
same,concentration at 8 h,"200 mg, 200 mg BID of Form B, Day 1, 8.0 h, Median, read-out: Compound I Concentration",9.13 ng/mL
same,concentration at 10 h,"200 mg, 200 mg BID of Form B, Day 1, 10.0 h, Mean, read-out: Compound I Concentration",6.61 ng/mL
same,concentration at 10 h,"200 mg, 200 mg BID of Form B, Day 1, 10.0 h, Median, read-out: Compound I Concentration",6.33 ng/mL
same,concentration at 12 h,"200 mg, 200 mg BID of Form B, Day 1, 12.0 h, Mean, read-out: Compound I Concentration",5.64 ng/mL
same,concentration at 12 h,"200 mg, 200 mg BID of Form B, Day 1, 12.0 h, Median, read-out: Compound I Concentration",4.89 ng/mL
same,concentration at 0 h,"200 mg, 200 mg QD of Form B, Day 1, 0.0 h, Mean, read-out: Compound I Concentration",0 ng/mL
same,concentration at 0 h,"200 mg, 200 mg QD of Form B, Day 1, 0.0 h, Median, read-out: Compound I Concentration",0 ng/mL
same,concentration at 1 h,"200 mg, 200 mg QD of Form B, Day 1, 1.0 h, Mean, read-out: Compound I Concentration",8.42 ng/mL
same,concentration at 1 h,"200 mg, 200 mg QD of Form B, Day 1, 1.0 h, Median, read-out: Compound I Concentration",3.65 ng/mL
same,concentration at 2 h,"200 mg, 200 mg QD of Form B, Day 1, 2.0 h, Mean, read-out: Compound I Concentration",13.6 ng/mL
same,concentration at 2 h,"200 mg, 200 mg QD of Form B, Day 1, 2.0 h, Median, read-out: Compound I Concentration",12.3 ng/mL
same,concentration at 3 h,"200 mg, 200 mg QD of Form B, Day 1, 3.0 h, Mean, read-out: Compound I Concentration",20.2 ng/mL
same,concentration at 3 h,"200 mg, 200 mg QD of Form B, Day 1, 3.0 h, Median, read-out: Compound I Concentration",18.1 ng/mL
same,concentration at 4 h,"200 mg, 200 mg QD of Form B, Day 1, 4.0 h, Mean, read-out: Compound I Concentration",25 ng/mL
same,concentration at 4 h,"200 mg, 200 mg QD of Form B, Day 1, 4.0 h, Median, read-out: Compound I Concentration",27 ng/mL
same,concentration at 6 h,"200 mg, 200 mg QD of Form B, Day 1, 6.0 h, Mean, read-out: Compound I Concentration",16.8 ng/mL
same,concentration at 6 h,"200 mg, 200 mg QD of Form B, Day 1, 6.0 h, Median, read-out: Compound I Concentration",17.7 ng/mL
same,concentration at 8 h,"200 mg, 200 mg QD of Form B, Day 1, 8.0 h, Mean, read-out: Compound I Concentration",11.6 ng/mL
same,concentration at 8 h,"200 mg, 200 mg QD of Form B, Day 1, 8.0 h, Median, read-out: Compound I Concentration",12.2 ng/mL
same,concentration at 10 h,"200 mg, 200 mg QD of Form B, Day 1, 10.0 h, Mean, read-out: Compound I Concentration",8.28 ng/mL
same,concentration at 10 h,"200 mg, 200 mg QD of Form B, Day 1, 10.0 h, Median, read-out: Compound I Concentration",9.13 ng/mL
same,concentration at 12 h,"200 mg, 200 mg QD of Form B, Day 1, 12.0 h, Mean, read-out: Compound I Concentration",6.29 ng/mL
same,concentration at 12 h,"200 mg, 200 mg QD of Form B, Day 1, 12.0 h, Median, read-out: Compound I Concentration",6.43 ng/mL
same,concentration at 24 h,"200 mg, 200 mg QD of Form B, Mean, read-out: Compound I Concentration",3.61 ng/mL
same,concentration at 24 h,"200 mg, 200 mg QD of Form B, Median, read-out: Compound I Concentration",3.24 ng/mL
same,concentration at 0 h,"200 mg, 200 mg QD of Form B, Day 29, 0.0 h, Mean, read-out: Compound I Concentration",4.05 ng/mL
same,concentration at 0 h,"200 mg, 200 mg QD of Form B, Day 29, 0.0 h, Median, read-out: Compound I Concentration",4.1 ng/mL
same,concentration at 1 h,"200 mg, 200 mg QD of Form B, Day 29, 1.0 h, Mean, read-out: Compound I Concentration",5.12 ng/mL
same,concentration at 1 h,"200 mg, 200 mg QD of Form B, Day 29, 1.0 h, Median, read-out: Compound I Concentration",5.35 ng/mL
same,concentration at 2 h,"200 mg, 200 mg QD of Form B, Day 29, 2.0 h, Mean, read-out: Compound I Concentration",6.92 ng/mL
same,concentration at 2 h,"200 mg, 200 mg QD of Form B, Day 29, 2.0 h, Median, read-out: Compound I Concentration",7.27 ng/mL
same,concentration at 3 h,"200 mg, 200 mg QD of Form B, Day 29, 3.0 h, Mean, read-out: Compound I Concentration",12.5 ng/mL
